Results from ChEMBL document CHEMBL3430912, “GSK Tres Cantos Anti-Kinetoplastid Screening (TCAKS) Data”.

Legend:
[1] = GSK_TCAKS: pIC50 HepG2 human cell line viability assay using luminiscence. […] Seeding density was checked to ensure that new mono-layers were not more than 50% confluent at the time of harvesting. Cell suspension was added to 500 mL of the same medium at a final density of 1.2 * 10^5 cells/mL. This cell suspension was dispensed (25 uL, 3000 cells per well) into 384-well clear-bottom plates using a Multidrop Combi dispenser. Prior to addition of the cell suspension, the screening compounds (250 nL) were pre-dispensed into the plates with an Echo liquid handler. Plates were incubated for 48 h at 37C, 5% CO2. After incubation, plates equilibrated at room temperature for 30 min before proceeding to develop the luminescent signal. The signal developer, CellTiter-Glo Reagent, was allowed to equilibrate at room temperature for 30 min and added to the plates (25uL per well) using a Multidrop Combi dispenser. Plates were left for 10 min at room temperature for stabilization and then read using a ViewLux.; assay type: toxicity, cell-based
Trypanosoma cruzi [2] = test: (§1) GSK_TCAKS: pIC50 Trypanosoma cruzi Imaging: Amastigotes/Cell. […] Cells were then washed once with PBS before infection. T. cruzi trypomastigotes, collected at days 5 to 8 after infection from LLC-MK2 parasite infected cultures, were allowed to swim out for 4h at 37C from a centrifuged pellet (2,500 rpm/10 min/room temperature). Trypomastigotes were then collected and counted in a CASY Cell Counter. Trypomastigotes, in supplemented DMEM, were added to H9c2 cultures in a multiplicity of infection of 1 and incubated for 18 h. Cells were washed once with PBS before incubation of the infected H9c2 monolayer with trypsin (Life-Technologies) to detach cells from the flask. Cells were counted in a CASY Cell Counter using a 150 um capillary and their density set at 5 * 10^4 cells per mL in supplemented assay DMEM. Infected H9c2 were dispensed into 384-well poly-lysine coated assay plates at 50uL per well using a Multidrop Combi dispenser. After seeding them, the plates were incubated at 37C, 5% CO2 for 72h. Cultures were then fixed and stained by addition of 50 uL of a solution containing 8% formaldehyde and 4 uM DRAQ5 DNA dye (BioStatus, UK) per well. […] Five images were collected per well for reliable statistical analysis. Automated image analysis was performed with a script developed on Acapella High Content Imaging and Analysis Software (PerkinElmer). Output: number of amastigotes per cell as infection level measurement.; assay type: functional, organism-based, Rattus norvegicus; settings: H9c2, 4 h
[3] = target: Sterol 14-alpha demethylase (Trypanosoma cruzi (strain CL Brener), UniProt Q7Z1V1); test: GSK_TCAKS: pIC50 CYP51 from Trypanosoma cruzi.; assay type: functional
Leishmania donovani [4] = test: (§2) GSK_TCAKS: pIC50 Leishmania donovani Imaging: Amastigotes/Macrophages. Assay plates (384-well) were prepared by adding 250nL of compound to each well. For single shot assay, the final compound concentration was 5 uM. […] Automated image analysis was performed with a script developed on Acapella High Content Imaging and Analysis Software (PerkinElmer). Output: Average number of amastigotes per macrophage cell were reported for each well.; assay type: functional, organism-based, Homo sapiens; settings: THP-1
[5] = tested on: Trypanosoma brucei brucei; test: GSK_TCAKS: pIC50 Trypanosoma brucei viability assay using fluorescence intensity. Assay plates (1536-well) were prepared by dispensing 25nL of compound solution per well using an Echo acoustic dispenser (Labcyte).; assay type: functional, organism-based; settings: Lister 427, 2 h
Trypanosoma cruzi [6] = test: as §1, with “H2C9” for “Trypanosoma cruzi”, “H9c2 Host Cardiomyocytes.” for “Amastigotes/Cell.”, “Number” for “number”, “H9c2 Host Cardiomyocytes nuclei to determine drug-related cytotoxicity.” for “amastigotes per cell as infection level measurement.”; assay type: functional, organism-based, Rattus norvegicus; settings: H9c2, 4 h
Leishmania donovani [7] = test: as §2, with “THP-1 Host Macrophages.” for “Amastigotes/Macrophages.”, “THP-1” for “Average number of amastigotes per macrophage”, “cell count” for “cell”; assay type: functional, organism-based, Homo sapiens
[8] = tested on: Trypanosoma brucei brucei; test: GSK_TCAKS: pIC50 Trypanosoma brucei viability assay using luminiscence. Assay plates (1536-well) were prepared. T. brucei cultures were harvested and counted in a CASY cell counter. A parasite suspension was prepared at a final concentration of 5 * 10^4 cells/mL in complete HMI9 medium and 6uL was dispensed to all wells containing compounds using a Multidrop Combi dispenser. 6uL of HMI9 media with 0.4% DMSO were dispensed to control columns. Plates were incubated for 24 h at 37C, 5% CO2 then tempered for 10 min at room temperature. ATP content was quantified by adding 4 uL of CellTiter-Glo Reagent (Promega) according to the manufacturer's instructions. Luminescence was measured using a ViewLux.; assay type: functional, organism-based; settings: Lister 427, CASY
NIH3T3 = test: GSK_TCAKS: pIC50 NIH 3T3 cell line viability assay using luminiscence. Tissue culture surface treated assay plates (1536-well) were used. […] The 100% cells survival control was determined exposing the host-cells to a 0.5% DMSO concentration, whereas the 100% toxicity control was achieved by seeding the cells in presence of Amphotericin B at 50uM. Plates were incubated for four days at 37C, 5% CO2. The assay readout was developed by addition of 5uL of CellTiter-Glo Reagent following the manufacturer's instructions. Luminiscence was measured using a ViewLux.; assay type: functional, cell-based; settings: Mus musculus, NIH3T3, 96 h
Trypanosoma cruzi [9] = test: GSK_TCAKS: pIC50 Trypanosoma cruzi Imaging: Infected Cells. […] Cells were then washed once with PBS before infection. T. cruzi trypomastigotes, collected at days 5 to 8 after infection from LLC-MK2 parasite infected cultures, were allowed to swim out for 4h at 37C from a centrifuged pellet (2,500 rpm/10 min/room temperature). Trypomastigotes were then collected and counted in a CASY Cell Counter. Trypomastigotes, in supplemented DMEM, were added to H9c2 cultures in a multiplicity of infection of 1 and incubated for 18 h. Cells were washed once with PBS before incubation of the infected H9c2 monolayer with trypsin (Life-Technologies) to detach cells from the flask. Cells were counted in a CASY Cell Counter using a 150 um capillary and their density set at 5 * 10^4 cells per mL in supplemented assay DMEM. Infected H9c2 were dispensed into 384-well poly-lysine coated assay plates at 50uL per well using a Multidrop Combi dispenser. After seeding them, the plates were incubated at 37C, 5% CO2 for 72h. Cultures were then fixed and stained by addition of 50 uL of a solution containing 8% formaldehyde and 4 uM DRAQ5 DNA dye (BioStatus, UK) per well. […] Five images were collected per well for reliable statistical analysis. Automated image analysis was performed with a script developed on Acapella High Content Imaging and Analysis Software (PerkinElmer). Output: percentage of infected cells per well as a second infection marker.; assay type: functional, organism-based, Rattus norvegicus; settings: H9c2, 4 h
Leishmania donovani [10] = test: GSK_TCAKS: pIC50 Leishmania donovani viability assay using fluorescence intensity. Assay plates (1536-well) were prepared by adding 30nL per well of compound. For single shot assay, the final compound concentration was 5uM. […] Briefly, eGFP LdBOB axenic amastigotes were harvested, fixed and counted in a CASY cell counter (Roche-Applied Science). A final concentration of 1.5 * 10^5 cells per well were prepared in amastigote media containing 500 U/mL penicillin/streptomycin (Invitrogen) and 6uL was dispensed to each experimental well using a Multidrop Combi dispenser (Thermo Scientific). 6uL of assay media was dispensed to control columns used as reference for 100% compound response. Following incubation for 72 h at 37C, 5% CO2, 2 uL of resazurin was added to each well at a final concentration of 0.5 mM in phosphate buffered saline (PBS) with IGEPAL (Sigma-Aldrich), 0.05% (v/v).; assay type: functional, organism-based
Leishmania donovani [11] = test: as §2, with “Infected Macrophages.” for “Amastigotes/Macrophages.”, “Percent” for “Average number”, “infected” for “amastigotes per”, “cells” for “cell”; assay type: functional, organism-based, Homo sapiens; settings: THP-1
Trypanosoma cruzi [12] = test: GSK_TCAKS: pIC50 Trypanosoma cruzi viability assay using beta-GAL activity. This assay was run at single shot at 5uM compound concentration per well. The biological reagents consisted of NIH-3T3 host cells and trypomastigotes parasitic cells; both cell types were set to a 3.3 * 10^5 cells/mL dilution in assay DMEM by means of a CASY cell counter device using a 60um capillary. 6 uL of the mixture were dispensed per well (about 1 * 10^3 host-cells and 1 * 10^3 parasites) with a Multidrop Combi dispenser. […] In all wells, the percentage of DMSO never exceeded 0.5%. Plates incubated for four days at 37C, 5% CO2. The substrate used for the assay fluorescence intensity (FLINT) readout was resorufin-beta-D-galactopiranoside (Sigma-Aldrich) at 5uM per well. It was diluted in PBS supplemented with the soft detergent Igepal (Fluka).; assay type: functional, organism-based, Mus musculus; settings: Tulahuen, NIH3T3

Sterol 14-alpha demethylase, sequence (Q7Z1V1 whole entry): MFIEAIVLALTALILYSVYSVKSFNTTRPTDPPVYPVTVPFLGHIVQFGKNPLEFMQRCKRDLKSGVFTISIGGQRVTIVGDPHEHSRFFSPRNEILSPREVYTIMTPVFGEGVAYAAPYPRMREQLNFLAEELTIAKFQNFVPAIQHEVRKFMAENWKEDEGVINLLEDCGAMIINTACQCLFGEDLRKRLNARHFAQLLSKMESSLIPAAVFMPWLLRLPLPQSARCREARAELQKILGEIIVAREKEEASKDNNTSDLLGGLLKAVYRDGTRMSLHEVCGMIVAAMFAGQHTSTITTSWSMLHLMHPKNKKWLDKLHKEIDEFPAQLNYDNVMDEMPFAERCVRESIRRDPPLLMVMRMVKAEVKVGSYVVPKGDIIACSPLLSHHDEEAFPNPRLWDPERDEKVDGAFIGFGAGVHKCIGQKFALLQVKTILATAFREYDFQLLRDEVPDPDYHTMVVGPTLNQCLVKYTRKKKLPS

Compound	IC50 at 48 h [1]	IC50 (Trypanosoma cruzi [2])	IC50 [3]	IC50 (Leishmania donovani [4])	IC50 [5]	IC50 (Trypanosoma cruzi [6])	IC50 (Leishmania donovani [7])	IC50 [8]	IC50 (NIH3T3)	IC50 (Trypanosoma cruzi [9])	IC50 (Leishmania donovani [10])	IC50 (Leishmania donovani [11])	IC50 (Trypanosoma cruzi [12])
Cc1ccc2c(c1)-c1onc(C(=O)N3CCCCC3c3cccnc3)c1CO2 (stereo not drawn)	50.1 µM	0.126 µM	0.1 µM	39.8 µM	39.8 µM	> 50.1 µM	39.8 µM	> 39.8 µM	20 µM	0.126 µM	31.6 µM	> 50.1 µM	0.1 µM
Cc1ccc(S(=O)(=O)Cn2nnnc2C(c2cccnc2)N2CCN(c3ccccc3)CC2)cc1 (stereo not drawn)	> 100 µM	0.316 µM	0.2 µM	> 50.1 µM	31.6 µM	> 50.1 µM	> 50.1 µM	> 39.8 µM	31.6 µM	0.316 µM	1 µM	> 50.1 µM	0.501 µM
COc1ccc(C(=O)N2CCC(Nc3cccnc3)C2)c(OC)n1 (stereo not drawn)	> 100 µM	0.794 µM	0.0631 µM	> 50.1 µM	> 39.8 µM	> 50.1 µM	> 50.1 µM	> 39.8 µM	> 50.1 µM	0.794 µM	15.8 µM	> 50.1 µM	0.316 µM
O=C1CN(C2CCCc3c(OCc4ccncc4)cccc32)C(=O)N1C1CCCCC1 (stereo not drawn)	> 100 µM	0.0126 µM	0.02 µM	> 50.1 µM	15.8 µM	> 50.1 µM	> 50.1 µM	> 39.8 µM	> 50.1 µM	0.0158 µM	> 50.1 µM	> 50.1 µM	0.251 µM
Cc1ccc(C)c(OC2CCN(C(=O)C(C)n3ccnc3)CC2)c1 (stereo not drawn)	> 100 µM	0.316 µM	0.1 µM	0.316 µM	> 39.8 µM	> 50.1 µM	> 50.1 µM	> 39.8 µM	> 50.1 µM	0.398 µM	2.51 µM	> 50.1 µM	0.178 µM
CC1(Oc2cncc(Cl)c2)CCN(Cc2cc3ccccc3[nH]2)C1 (stereo not drawn)	31.6 µM	1 µM	10 µM	31.6 µM	> 39.8 µM	10 µM	31.6 µM	> 39.8 µM	10 µM	1.58 µM	> 50.1 µM	20 µM	1 µM
O=C(NCCc1cccnc1)c1ccc(-c2ccccc2F)o1	> 100 µM	0.2 µM	0.0631 µM	> 50.1 µM	31.6 µM	> 50.1 µM	> 50.1 µM	> 39.8 µM	39.8 µM	0.2 µM	20 µM	> 50.1 µM	0.112 µM
Cc1cc(C)nc(N2CCC(N(Cc3cccnc3)C(=O)c3cccc(C#N)c3)CC2)n1	> 100 µM	0.398 µM	0.126 µM	> 50.1 µM	> 39.8 µM	> 50.1 µM	> 50.1 µM	> 39.8 µM	7.94 µM	0.316 µM	5.01 µM	> 50.1 µM	0.316 µM
O=C(c1cccc(Cl)c1Cl)N1CCn2c1nc(-c1ccncc1)cc2=O	> 100 µM	0.316 µM	0.0631 µM	31.6 µM	15.8 µM	> 50.1 µM	> 50.1 µM	31.6 µM	20 µM	0.316 µM	50.1 µM	> 50.1 µM	0.178 µM
O=C(CCCn1cnc([N+](=O)[O-])n1)Nc1cccc(Cl)c1	> 100 µM	0.158 µM	50.1 µM	> 50.1 µM	5.01 µM	> 50.1 µM	> 50.1 µM	> 39.8 µM	> 50.1 µM	0.501 µM	> 50.1 µM	> 50.1 µM	0.2 µM
CN(Cc1ccc(C(N)=O)cc1)C(c1ccc(F)cc1)c1cccnc1 (stereo not drawn)	> 100 µM	0.2 µM	0.1 µM	> 50.1 µM	> 39.8 µM	> 50.1 µM	> 50.1 µM	> 39.8 µM	31.6 µM	0.251 µM	> 50.1 µM	> 50.1 µM	0.158 µM
N#Cc1cccc(CN2CCC(N(Cc3cccnc3)C(=O)c3cc(F)c(F)cc3F)CC2)c1	> 100 µM	0.316 µM	0.0501 µM	12.6 µM	> 39.8 µM	> 50.1 µM	> 50.1 µM	> 39.8 µM	20 µM	0.398 µM	> 50.1 µM	> 50.1 µM	0.398 µM
O=C(c1cnn(-c2ccccc2)n1)N1CCCC(n2ccnc2)C1 (stereo not drawn)	> 100 µM	0.0631 µM	0.0794 µM	0.631 µM	> 39.8 µM	> 50.1 µM	> 50.1 µM	31.6 µM	20 µM	0.0794 µM	7.94 µM	> 50.1 µM	0.0562 µM
O=C(NCC1CCCCC1)c1cnns1	39.8 µM	2 µM	> 100 µM	10 µM	1 µM	> 50.1 µM	> 50.1 µM	1.26 µM	> 50.1 µM	3.16 µM	12.6 µM	> 50.1 µM	2.51 µM
O=C(NCC(c1cccnc1)N1CCc2ccccc2C1)C(=O)Nc1cccc(Cl)c1 (stereo not drawn)	> 100 µM	0.0631 µM	0.0631 µM	> 50.1 µM	15.8 µM	25.1 µM	> 50.1 µM	20 µM	25.1 µM	0.0794 µM	1.26 µM	> 50.1 µM	0.2 µM
COc1ccc2ncc(F)c(NC(=O)[C@]3(O)CC[C@@H](NCc4ccc5c(c4)OCCO5)CC3)c2n1	50.1 µM	0.158 µM	63.1 µM	15.8 µM	0.794 µM	31.6 µM	20 µM	1.58 µM	7.94 µM	0.126 µM	39.8 µM	31.6 µM	0.158 µM
